Experiment [1] concerns the target T1, 5-HT2C receptor (Oryctolagus cuniculus, UniProt G1TAG7).
T1 sequence (G1TAG7 33-453): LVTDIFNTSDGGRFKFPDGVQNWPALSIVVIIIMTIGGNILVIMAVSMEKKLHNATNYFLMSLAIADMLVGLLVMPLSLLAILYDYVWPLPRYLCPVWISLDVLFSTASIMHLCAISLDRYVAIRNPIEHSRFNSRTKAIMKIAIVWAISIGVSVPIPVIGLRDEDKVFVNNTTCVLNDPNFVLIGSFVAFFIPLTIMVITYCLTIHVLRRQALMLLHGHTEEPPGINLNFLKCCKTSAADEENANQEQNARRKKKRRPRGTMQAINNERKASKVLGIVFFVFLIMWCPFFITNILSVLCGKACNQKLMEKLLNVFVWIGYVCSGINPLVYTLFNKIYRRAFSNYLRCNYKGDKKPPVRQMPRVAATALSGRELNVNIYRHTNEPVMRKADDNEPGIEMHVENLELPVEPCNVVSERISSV
The experiment can be described thus: [3H]mesulergine competition radioligand binding.

The target in experiment [2] is T2, dopamine1 (D1) receptor (Oryctolagus cuniculus, UniProt G1SML2). In words: [3H]SCH23390 competition radioligand binding.
T2 sequence (G1SML2 1-448): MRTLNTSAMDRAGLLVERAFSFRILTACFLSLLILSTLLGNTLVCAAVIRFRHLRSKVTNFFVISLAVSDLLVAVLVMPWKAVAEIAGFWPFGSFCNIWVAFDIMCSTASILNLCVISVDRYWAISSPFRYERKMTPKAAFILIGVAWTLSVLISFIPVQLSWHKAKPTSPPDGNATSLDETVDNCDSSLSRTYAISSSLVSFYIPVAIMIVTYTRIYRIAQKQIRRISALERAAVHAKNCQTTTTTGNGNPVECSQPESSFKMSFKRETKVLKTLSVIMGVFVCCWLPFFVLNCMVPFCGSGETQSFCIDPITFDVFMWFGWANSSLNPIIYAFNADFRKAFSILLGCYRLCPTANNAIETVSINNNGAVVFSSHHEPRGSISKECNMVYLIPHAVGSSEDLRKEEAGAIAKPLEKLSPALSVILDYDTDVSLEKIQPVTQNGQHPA
Experiment [3] concerns the target T2, dopamine1 (D1) receptor. In words: [3H]SCH23390 saturation radioligand binding.
Experiment [4] has as its target serotonin2A (5-HT2A) receptor (Oryctolagus cuniculus, UniProt G1SYA7). In words: [3H]ketanserin saturation radioligand binding.
Experiment [5] has as its target T1, 5-HT2C receptor. In words: [3H]mesulergine saturation radioligand binding.

serotonin2A (5-HT2A) receptor, sequence (G1SYA7 1-469): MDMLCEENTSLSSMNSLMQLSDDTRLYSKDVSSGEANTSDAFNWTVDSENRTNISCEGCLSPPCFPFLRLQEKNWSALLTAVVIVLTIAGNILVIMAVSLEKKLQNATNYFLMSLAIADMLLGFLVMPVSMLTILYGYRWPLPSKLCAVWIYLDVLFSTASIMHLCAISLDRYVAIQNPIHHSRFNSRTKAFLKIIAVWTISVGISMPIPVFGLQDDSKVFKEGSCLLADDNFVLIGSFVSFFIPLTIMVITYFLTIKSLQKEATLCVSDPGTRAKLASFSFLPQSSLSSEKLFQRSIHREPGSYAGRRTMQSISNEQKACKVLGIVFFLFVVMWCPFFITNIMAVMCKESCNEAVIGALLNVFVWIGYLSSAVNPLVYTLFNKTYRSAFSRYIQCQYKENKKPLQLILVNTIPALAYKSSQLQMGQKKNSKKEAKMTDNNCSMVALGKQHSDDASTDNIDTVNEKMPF

One may read the Ki as the equilibrium dissociation constant of an inhibitor or competing ligand from its target. Low readings indicate tighter binding, high ones weaker binding. At 5-HT2C receptor [1], `COc1cc(CC(C)N)c(OC)cc1I` (racemic) [DOI, (±)-1-(2,5-dimethoxy-4-iodophenyl)-2-aminopropane] came in with a Ki of 73.5 nM.

As for `CCN(CC)C(=O)[C@@H]1C=C2c3cccc4[nH]cc(c34)C[C@H]2N(C)C1` [LSD], the figures for the Ki on 5-HT2C receptor [1] and on dopamine1 (D1) receptor [2] were 7.5 nM and 161 nM, respectively.

Regarding `CN1CCc2cc(Cl)c(O)cc2[C@@H](c2ccccc2)C1` [SCH23390], the “[3H]SCH23390 saturation radioligand binding (Bmax)” value on dopamine1 (D1) receptor [3] is “Dopamine1 receptor density was quantified using eight concentrations of the antagonist radioligand, [^3H]SCH23390”.

Usually Kd stands for the free concentration of one partner at which half of the binding sites on the other are occupied at equilibrium, for simple one-to-one binding. In the case of `O=C(c1ccc(F)cc1)C1CCN(CCn2c(=O)[nH]c3ccccc3c2=O)CC1` [ketanserin], the Kd in experiment [4] was determined as 0.21 nM.

For the compound `CN1C[C@@H](NS(=O)(=O)N(C)C)C[C@@H]2c3cccc4c3c(cn4C)C[C@H]21` [mesulergine], the “[3H]mesulergine saturation radioligand binding (Bmax)” value on 5-HT2C receptor [5] was “Serotonin2C receptor density was quantified using eight concentrations of the antagonist radioligand, [^3H]mesulergine”.

For the origin of these results see article PMC3272148 (2011).
